Reference: patent US20070238756A1, “COMBINATIONS OF DIPEPTIDYL PEPTIDASE IV INHIBITORS AND OTHER ANTIDIABETIC AGENTS FOR THE TREATMENT OF DIABETES MELLITUS” (priority 2000, published 2007)

What was measured:
DPP-IV = target: T1, DPP-IV (Rattus norvegicus, UniProt P14740); test: Plasma DPP-IV activity in treated ZDF rats (Gly-Pro-AMC fluorogenic substrate); format: in vivo; settings: male ZDF fa/fa rats, oral gavage BID for 7 days; Compound (I) 5 mg/kg, Compound (II) 100 mg/kg, combination of both doses; n=6; control 5544 ± 485
T1 construct: from tissue; host or cells: plasma of treated male ZDF fa/fa rats
T1 sequence (P14740 37-767 limits assumed): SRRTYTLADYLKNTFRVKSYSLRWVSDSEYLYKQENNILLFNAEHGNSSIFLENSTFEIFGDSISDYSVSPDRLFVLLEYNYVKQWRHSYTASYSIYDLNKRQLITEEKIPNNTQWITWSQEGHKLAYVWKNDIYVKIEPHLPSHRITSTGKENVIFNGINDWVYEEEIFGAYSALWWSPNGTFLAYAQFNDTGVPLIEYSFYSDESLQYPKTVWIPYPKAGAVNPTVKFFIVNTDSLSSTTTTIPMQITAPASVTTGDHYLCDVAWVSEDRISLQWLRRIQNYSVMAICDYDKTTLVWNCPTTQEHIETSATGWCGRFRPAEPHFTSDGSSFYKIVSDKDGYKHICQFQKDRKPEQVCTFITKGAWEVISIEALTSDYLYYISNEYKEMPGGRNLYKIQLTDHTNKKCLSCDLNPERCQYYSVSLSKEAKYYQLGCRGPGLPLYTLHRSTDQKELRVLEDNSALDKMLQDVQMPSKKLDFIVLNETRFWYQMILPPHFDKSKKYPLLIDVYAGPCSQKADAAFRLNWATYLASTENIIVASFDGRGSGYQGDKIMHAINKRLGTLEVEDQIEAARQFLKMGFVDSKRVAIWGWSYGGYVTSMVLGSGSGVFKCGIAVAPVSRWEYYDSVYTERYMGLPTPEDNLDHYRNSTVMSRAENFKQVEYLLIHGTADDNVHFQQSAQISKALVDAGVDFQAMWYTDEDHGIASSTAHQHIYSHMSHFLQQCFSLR
Procedure: DPP-IV activity was measured using the fluorogenic substrate Gly-Pro-AMC ([…]) according to the manufacturer's specification (Enzyme System Products, Livermore Calif.). The substrate was mixed with 50 mM Tris, pH 7.8, in plasma (20% final v/v) and the samples were incubated for 5-20 min at 30 °C. DPP-IV activity was determined by measuring fluorescence using a cytofluor spectrofluoremeter with the filters set at 360 nm excitation and 460 nm emission.

male ZDF fa/fa rats [1] = test: % HbA1C 7 day change in ZDF rats; format: in vivo, rat; settings: oral gavage BID for 7 days, Compound (I) 5 mg/kg, Compound (II) 100 mg/kg, combination of both doses, n=6, control 1.63 ± 1.12
Procedure: Age and weight matched male ZDF fa/fa rats (Genetic Models, Inc., Indianapolis, Ind.) were housed individually at 72° F. and 50% relative humidity with a 12 h light/dark cycle and fed PMI 5008 Formulab Diet (PMI Nutrition International, Saint Louis, Mo.).
(§1) Rats were anesthetized with isofluorane for cardiac blood collection 30 minutes after administration of the glucose solution. Serum chemistry measurements were obtained using an automated chemistry analyzer (ILab600, Instrument Laboratory, Lexington, Mass.).
Results from each group (n=6) were averaged and compared to vehicle treated rats to determine significance and are shown in Table I.

male ZDF fa/fa rats [2] = test: Glucose tolerance test, plasma glucose 30 min after intraperitoneal glucose, in ZDF rats; format: in vivo, rat; settings: oral gavage BID for 7 days, i.p. glucose 30 min after last dose, blood 30 min after glucose, Compound (I) 5 mg/kg, Compound (II) 100 mg/kg, combination of both doses, n=6, control 695 ± 24
Procedure: For glucose tolerance measurements, rats were treated with test compound for 7 days and given an intraperitoneal injection of a glucose solution in saline 30 minutes after the last dose of test compound.
as §1

CN(CCOc1ccc(CC2SC(=O)NC2=O)cc1)c1ccccn1 (centres unmarked) [Compound (I), 5-[4-[2-(N-methyl-N-(2-pyridyl)amino)ethoxy]benzyl]thiazolidine-2,4-dione]
Plasma DPP-IV activity (DPP-IV): 4104 ± 399 | % HbA1C (7 day change) (male ZDF fa/fa rats [1]): 0.79 ± 0.54 % | Plasma Glucose (30 min GTT) (male ZDF fa/fa rats [2]): 665 ± 40

CC[C@H](C)[C@H](N)C(=O)N1CCSC1 [Compound (II), isoleucine thiazolidide]
% HbA1C (7 day change) (male ZDF fa/fa rats [1]): 1.81 ± 1.24% | Plasma Glucose (30 min GTT) (male ZDF fa/fa rats [2]): 684 ± 60
